From patent US6458950B1, “Compounds and pharmaceutical compositions containing the same” (Shionogi & Co., Ltd., priority 1997, dated 2002)
In brackets after ≈: the same amount, converted by molar mass.

Experiments:
[1] = system: P.vulgaris GN-329; test: Treating effect on infections in mouse; format: in vivo; settings: Proteus vulgaris, GN329, P.vulgaris GN-329 infection
[2] = system: S.aureus Smith; test: Treating effect on infections in mouse; format: in vivo; settings: Staphylococcus aureus, S.aureus Smith infection
[3] = system: S.pneumoniae Type I; test: Treating effect on infections in mouse; format: in vivo; settings: Streptococcus pneumoniae, S.pneumoniae Type I infection
[4] = system: S. mitis ATCC9811; test: MIC by agar dilution method; format: cell-based; settings: Streptococcus mitis, inoculation amount 10^6 CFU/ml
Protocol: (§1) The minimal inhibitory concentration (MIC) was determined by an agar dilution method. That is, 1.0 ml each of an aqueous solution of a test compound diluted in series was poured into a petri dish. Trypticase soy agar (9 ml) was poured into the solution, and mixed. A suspension (about 10^6 CFU/ml) of test bacteria was smeared on the mixed agar plate.
(§2) Gram-positive bacteria; S. pyogenes C-203, S. agalactiae ATCC13813, S. pneumoniae Type I, S. pneumoniae SR16675(PC-R), S. mitis ATCC9811 Gram-negative bacteria: K. pneumoniae SR1, P. mirabilis PR-4 and P. vulgaris CN-329

[5] = system: S. pyogenes C-203; test: MIC by agar dilution method; format: cell-based; settings: Streptococcus pyogenes, C203, inoculation amount 10^6 CFU/ml
Protocol: as §1, §2

[6] = system: K. pneumoniae SR1; test: MIC by agar dilution method; format: cell-based; settings: Klebsiella pneumoniae, K.pneumoniae R1, inoculation amount 10^6 CFU/ml
Protocol: as §1, §2

[7] = system: P. vulgaris CN-329; test: MIC by agar dilution method; format: cell-based; settings: Proteus vulgaris, CN329, inoculation amount 10^6 CFU/ml
Protocol: as §1, §2

[8] = system: S. pneumoniae SR16675(PC-R); test: MIC by agar dilution method; format: cell-based; settings: Streptococcus pneumoniae, inoculation amount 10^6 CFU/ml
Protocol: as §1, §2

[9] = system: S. agalactiae ATCC13813; test: MIC by agar dilution method; format: cell-based; settings: Streptococcus agalactiae, inoculation amount 10^6 CFU/ml
Protocol: as §1, §2

[10] = system: P. mirabilis PR-4; test: MIC by agar dilution method; format: cell-based; settings: Proteus mirabilis, PR4, inoculation amount 10^6 CFU/ml
Protocol: as §1, §2

[11] = system: S. pneumoniae Type I; test: MIC by agar dilution method; format: cell-based; settings: Streptococcus pneumoniae, inoculation amount 10^6 CFU/ml
Protocol: as §1, §2

[12] = system: P.aeruginosa SR24; test: Treating effect on infections in mouse; format: in vivo; settings: Pseudomonas aeruginosa, P.aeruginosa SR24 infection
[13] = in vivo; settings: mouse
[14] = system: P.aeruginosa E-2; test: Treating effect on infections in mouse; format: in vivo; settings: Pseudomonas aeruginosa, E2, P.aeruginosa E-2 infection
[15] = in vivo; settings: monkey

SMILES | ED50 [1] [mg/kg] | ED50 [2] [mg/kg] | ED50 [3] [mg/kg] | MIC [4] [µg/mL] | MIC [5] [µg/mL] | MIC [6] [µg/mL] | MIC [7] [µg/mL] | MIC [8] [µg/mL] | MIC [9] [µg/mL] | MIC [10] [µg/mL] | MIC [11] [µg/mL] | ED50 [12] [mg/kg] | half-life [13] [min] | ED50 [14] [mg/kg] | half-life [15] [min]
CO/N=C(\C(=O)NC1C(=O)N2C(C(=O)[O-])=C(Cn3cc[n+]4ncccc34)CSC12)c1nsc(N)n1 (centres unmarked) [Control compound (1)] | 0.81 | 0.76 | 0.69 | 0.1 (≈ 0.194 µM) | 0.013 (≈ 0.0252 µM) | 0.05 (≈ 0.097 µM) | 0.1 (≈ 0.194 µM) | 0.78 (≈ 1.51 µM) | 0.1 (≈ 0.194 µM) | 0.1 (≈ 0.194 µM) | 0.05 (≈ 0.097 µM) | 1.52 | 23.4 | 4.73 | 76.8
N#CNC(=O)NCc1cc(-c2cc[n+](CC3=C(C(=O)[O-])N4C(=O)C(NC(=O)/C(=N\OCF)c5nsc(N)n5)C4SC3)cc2)c[nH]1 (centres unmarked) [I-1′] | – | – | – | 0.05 (≈ 0.0763 µM) | 0.006 (≈ 0.00915 µM) | 0.006 (≈ 0.00915 µM) | 0.013 (≈ 0.0198 µM) | 0.2 (≈ 0.305 µM) | 0.025 (≈ 0.0381 µM) | 0.013 (≈ 0.0198 µM) | 0.013 (≈ 0.0198 µM) | – | – | – | –
